In ChEMBL document CHEMBL5705893, “Targeting the mitotic checkpoint for cancer therapy with NMS-P715, an inhibitor of MPS1 kinase” (Cancer Res, 2010):
Active and inactive are the calls of the source. The calls are words filed in the database; no cut-off is given here.

Tests used:
[1] = test system: SF-268; assay: Antiproliferative activity against human SF-268 cells assessed as inhibition of cell growth incubated for 72 hrs by celltiter-glo assay; assay type: functional, cell-based; settings: SF-268, 72 h
[2] = test system: HCT-15; assay: Antiproliferative activity against human HCT-15 cells assessed as inhibition of cell growth incubated for 72 hrs by celltiter-glo assay; assay type: functional, cell-based; settings: HCT-15, 72 h
[3] = test system: HT-29; assay: Antiproliferative activity against human HT-29 cells assessed as inhibition of cell growth incubated for 72 hrs by celltiter-glo assay; assay type: functional, cell-based; settings: HT-29, 72 h
[4] = test system: SK-LU-1; assay: Antiproliferative activity against human SK-LU-1 cells assessed as inhibition of cell growth incubated for 72 hrs by celltiter-glo assay; assay type: functional, cell-based; settings: SK-LU-1, 72 h
[5] = test system: NCI-H82; assay: Antiproliferative activity against human NCI-H82 cells assessed as inhibition of cell growth incubated for 72 hrs by celltiter-glo assay; assay type: functional, cell-based; settings: NCI-H82, 72 h
[6] = Inhibition of recombinant AUR1 (unknown origin); design: species or system Homo sapiens
[7] = Clearance in Athymic nu-nu mouse at 10 mg/kg, iv measured upto 24 hrs by LC-MS/MS analysis; assay type: ADME, organism-based; settings: in vivo
[8] = test system: Jurkat; assay: Antiproliferative activity against human Jurkat cells assessed as inhibition of cell growth incubated for 72 hrs by celltiter-glo assay; assay type: functional, cell-based
[9] = Antiproliferative activity against human DERL-7 cells assessed as inhibition of cell growth incubated for 72 hrs by celltiter-glo assay; assay type: functional, cell-based; settings: DERL7, 72 h
[10] = test system: U2OS; assay: Cytotoxicity against human U2OS cells expressing YFP-alpha tubulin assessed as cell death incubated for 86 hrs; assay type: functional, cell-based
[11] = test system: HeLa; assay: Antiproliferative activity against human HeLa cells assessed as inhibition of cell growth incubated for 72 hrs by celltiter-glo assay; assay type: functional, cell-based
[12] = test system: MDA-MB-231; assay: Antiproliferative activity against human MDA-MB-231 cells assessed as inhibition of cell growth incubated for 72 hrs by celltiter-glo assay; assay type: functional, cell-based; settings: MDA-MB-231, 72 h
[13] = biological target: Protein kinase C beta type (Homo sapiens, UniProt P05771); assay: Inhibition of recombinant PKCbeta (unknown origin)
Sequence of Protein kinase C beta type (P05771 whole entry): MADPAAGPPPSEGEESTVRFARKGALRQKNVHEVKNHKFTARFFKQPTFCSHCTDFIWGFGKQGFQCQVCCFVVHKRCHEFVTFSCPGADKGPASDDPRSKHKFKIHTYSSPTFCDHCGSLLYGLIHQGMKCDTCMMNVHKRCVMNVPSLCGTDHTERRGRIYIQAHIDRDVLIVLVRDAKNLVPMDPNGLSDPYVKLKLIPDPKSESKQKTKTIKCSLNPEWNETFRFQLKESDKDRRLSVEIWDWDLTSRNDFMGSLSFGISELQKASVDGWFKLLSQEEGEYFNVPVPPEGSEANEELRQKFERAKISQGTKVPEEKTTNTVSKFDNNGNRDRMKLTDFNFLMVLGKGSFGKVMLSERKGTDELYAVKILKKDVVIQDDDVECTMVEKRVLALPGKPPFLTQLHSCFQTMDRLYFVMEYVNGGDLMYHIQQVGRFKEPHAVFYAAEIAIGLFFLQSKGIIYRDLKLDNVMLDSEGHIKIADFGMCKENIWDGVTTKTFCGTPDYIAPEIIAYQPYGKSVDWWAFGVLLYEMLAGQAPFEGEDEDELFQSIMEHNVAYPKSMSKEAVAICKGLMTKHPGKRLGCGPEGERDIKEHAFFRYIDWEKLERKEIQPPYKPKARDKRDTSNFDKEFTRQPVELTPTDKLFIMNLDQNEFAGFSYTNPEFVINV

[14] = biological target: MAP kinase-interacting serine/threonine-protein kinase 2 (Homo sapiens, UniProt Q9HBH9); assay: Inhibition of recombinant MNK2 (unknown origin)
Sequence of MAP kinase-interacting serine/threonine-protein kinase 2 (Q9HBH9 whole entry): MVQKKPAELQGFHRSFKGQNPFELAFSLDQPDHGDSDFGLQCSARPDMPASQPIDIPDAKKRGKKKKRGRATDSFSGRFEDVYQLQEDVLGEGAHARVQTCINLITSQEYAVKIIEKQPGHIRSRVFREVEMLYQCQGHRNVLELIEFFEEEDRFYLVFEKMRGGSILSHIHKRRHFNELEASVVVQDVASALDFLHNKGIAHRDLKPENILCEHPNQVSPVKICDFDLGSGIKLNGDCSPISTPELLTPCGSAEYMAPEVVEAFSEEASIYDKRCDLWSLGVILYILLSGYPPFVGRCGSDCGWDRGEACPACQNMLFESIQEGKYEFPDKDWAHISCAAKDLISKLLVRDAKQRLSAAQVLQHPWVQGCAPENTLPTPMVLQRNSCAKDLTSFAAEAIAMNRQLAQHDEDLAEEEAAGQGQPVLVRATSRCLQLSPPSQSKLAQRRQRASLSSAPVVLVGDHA

[15] = test system: NCI/ADR-RES; assay: Antiproliferative activity against human NCI-ADR-RES cells assessed as inhibition of cell growth incubated for 72 hrs by celltiter-glo assay; assay type: functional, cell-based
[16] = test system: SW48; assay: Antiproliferative activity against human SW48 cells assessed as inhibition of cell growth incubated for 72 hrs by celltiter-glo assay; assay type: functional, cell-based; settings: SW48, 72 h
[17] = biological target: Tyrosine-protein kinase JAK3 (Homo sapiens, UniProt P52333); assay: Inhibition of recombinant JAK3 (unknown origin)
Sequence of Tyrosine-protein kinase JAK3 (P52333 whole entry): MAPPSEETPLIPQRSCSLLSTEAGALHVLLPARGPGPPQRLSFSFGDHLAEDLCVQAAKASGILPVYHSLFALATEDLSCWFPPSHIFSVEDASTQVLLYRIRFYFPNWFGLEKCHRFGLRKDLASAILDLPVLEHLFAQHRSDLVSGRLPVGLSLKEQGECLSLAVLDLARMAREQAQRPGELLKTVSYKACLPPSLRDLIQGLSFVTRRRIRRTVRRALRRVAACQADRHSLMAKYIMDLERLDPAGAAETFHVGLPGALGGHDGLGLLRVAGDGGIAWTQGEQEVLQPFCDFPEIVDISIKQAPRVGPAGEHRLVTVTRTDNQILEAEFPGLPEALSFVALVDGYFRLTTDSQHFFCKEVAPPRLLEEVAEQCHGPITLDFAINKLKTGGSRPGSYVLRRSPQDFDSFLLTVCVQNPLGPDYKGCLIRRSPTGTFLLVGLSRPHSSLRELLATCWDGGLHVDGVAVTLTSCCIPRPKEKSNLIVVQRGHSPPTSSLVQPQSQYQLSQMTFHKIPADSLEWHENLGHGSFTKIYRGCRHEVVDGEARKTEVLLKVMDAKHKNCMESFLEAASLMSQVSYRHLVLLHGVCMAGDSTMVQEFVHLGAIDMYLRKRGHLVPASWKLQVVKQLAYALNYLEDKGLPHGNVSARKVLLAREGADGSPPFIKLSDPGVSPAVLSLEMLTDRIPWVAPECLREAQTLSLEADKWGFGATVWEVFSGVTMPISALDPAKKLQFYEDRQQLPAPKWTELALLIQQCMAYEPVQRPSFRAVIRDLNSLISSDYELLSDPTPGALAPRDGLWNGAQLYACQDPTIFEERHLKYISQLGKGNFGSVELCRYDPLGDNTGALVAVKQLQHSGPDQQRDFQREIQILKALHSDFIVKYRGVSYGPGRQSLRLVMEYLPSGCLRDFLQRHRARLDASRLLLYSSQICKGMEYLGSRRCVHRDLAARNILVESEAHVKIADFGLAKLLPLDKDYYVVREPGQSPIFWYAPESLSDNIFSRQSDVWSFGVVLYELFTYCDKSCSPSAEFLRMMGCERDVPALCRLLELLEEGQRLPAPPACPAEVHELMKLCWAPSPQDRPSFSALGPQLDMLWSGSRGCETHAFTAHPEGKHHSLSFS

[18] = test system: SU-DHL-1; assay: Antiproliferative activity against human SU-DHL-1 cells assessed as inhibition of cell growth incubated for 72 hrs by celltiter-glo assay; assay type: functional, cell-based; settings: SU-DHL-1, 72 h
[19] = test system: SW1417; assay: Antiproliferative activity against human SW1417 cells assessed as inhibition of cell growth incubated for 72 hrs by celltiter-glo assay; assay type: functional, cell-based; settings: SW1417, 72 h
[20] = test system: SF-539; assay: Antiproliferative activity against human SF-539 cells assessed as inhibition of cell growth incubated for 72 hrs by celltiter-glo assay; assay type: functional, cell-based; settings: SF-539, 72 h
[21] = test system: UACC-257; assay: Antiproliferative activity against human UACC-257 cells assessed as inhibition of cell growth incubated for 72 hrs by celltiter-glo assay; assay type: functional, cell-based; settings: UACC-257, 72 h
[22] = test system: NCI-H1975; assay: Antiproliferative activity against human NCI-H1975 cells assessed as inhibition of cell growth incubated for 72 hrs by celltiter-glo assay; assay type: functional, cell-based; settings: NCI-H1975, 72 h
[23] = Antiproliferative activity against human CL-11 cells assessed as inhibition of cell growth incubated for 72 hrs by celltiter-glo assay; assay type: functional, cell-based; settings: CL-11, 72 h
[24] = test system: EKVX; assay: Antiproliferative activity against human EKVX cells assessed as inhibition of cell growth incubated for 72 hrs by celltiter-glo assay; assay type: functional, cell-based
[25] = test system: SW-403; assay: Antiproliferative activity against human SW403 cells assessed as inhibition of cell growth incubated for 72 hrs by celltiter-glo assay; assay type: functional, cell-based; settings: SW-403, 72 h
[26] = test system: U2OS; assay: Induction of mitotic arrest in human U2OS cells expressing YFP-alpha-tubulin assessed as effect on bipolar spindle formation at 1 micromol/L by time-lapse microscopic analysis; assay type: functional, cell-based; settings: dose 1.0 µmol/L
[27] = test system: A2780; assay: Cell cycle arrest in human A2780 cells assessed as accumulation of cells at G2/M phase at 0.2 to 1 micromol/L incubated for 24 hrs by FACS/PI staining based flow cytometric analysis; assay type: functional; settings: dose 0.2-1 µmol/L
[28] = test system: OVCAR-3; assay: Antiproliferative activity against human OVCAR-3 cells assessed as inhibition of cell growth incubated for 72 hrs by celltiter-glo assay; assay type: functional, cell-based; settings: OVCAR-3, 72 h
[29] = test system: MV4-11; assay: Antiproliferative activity against human MV4-11 cells assessed as inhibition of cell growth incubated for 72 hrs by celltiter-glo assay; assay type: functional, cell-based; settings: MV4-11, 72 h
[30] = biological target: Receptor-type tyrosine-protein kinase FLT3 (Homo sapiens, UniProt P36888); assay: Inhibition of recombinant FLT3 (unknown origin)
Sequence of Receptor-type tyrosine-protein kinase FLT3 (P36888 whole entry): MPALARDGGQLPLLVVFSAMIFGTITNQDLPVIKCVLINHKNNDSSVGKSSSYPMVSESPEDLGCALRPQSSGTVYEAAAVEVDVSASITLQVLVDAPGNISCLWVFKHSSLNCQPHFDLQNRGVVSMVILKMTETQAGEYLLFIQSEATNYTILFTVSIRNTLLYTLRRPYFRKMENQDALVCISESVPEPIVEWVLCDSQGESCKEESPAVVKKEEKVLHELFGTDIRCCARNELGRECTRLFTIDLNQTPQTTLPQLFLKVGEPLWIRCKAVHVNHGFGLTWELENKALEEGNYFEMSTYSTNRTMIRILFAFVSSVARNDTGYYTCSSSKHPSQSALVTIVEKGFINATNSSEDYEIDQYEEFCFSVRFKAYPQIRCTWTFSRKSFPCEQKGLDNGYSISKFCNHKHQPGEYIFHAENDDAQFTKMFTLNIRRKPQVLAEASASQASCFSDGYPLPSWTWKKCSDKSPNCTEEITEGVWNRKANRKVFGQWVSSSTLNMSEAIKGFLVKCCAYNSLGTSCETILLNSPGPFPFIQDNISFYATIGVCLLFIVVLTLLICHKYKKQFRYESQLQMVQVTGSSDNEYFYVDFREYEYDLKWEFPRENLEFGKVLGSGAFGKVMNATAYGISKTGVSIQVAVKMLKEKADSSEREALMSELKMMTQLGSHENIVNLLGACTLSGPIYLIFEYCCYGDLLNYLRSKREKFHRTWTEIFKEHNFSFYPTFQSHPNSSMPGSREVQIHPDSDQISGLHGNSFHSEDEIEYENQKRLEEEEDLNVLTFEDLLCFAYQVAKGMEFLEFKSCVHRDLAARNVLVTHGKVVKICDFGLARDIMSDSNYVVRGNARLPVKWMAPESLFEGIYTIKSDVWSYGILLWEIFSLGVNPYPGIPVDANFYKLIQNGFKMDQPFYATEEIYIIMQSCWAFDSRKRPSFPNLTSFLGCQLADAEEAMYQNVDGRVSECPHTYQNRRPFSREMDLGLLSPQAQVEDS

[31] = test system: ACHN; assay: Antiproliferative activity against human ACHN cells assessed as inhibition of cell growth incubated for 72 hrs by celltiter-glo assay; assay type: functional, cell-based
[32] = test system: CAKI-1; assay: Antiproliferative activity against human CAKI-1 cells assessed as inhibition of cell growth incubated for 72 hrs by celltiter-glo assay; assay type: functional, cell-based; settings: CAKI-1, 72 h
[33] = biological target: Mitogen-activated protein kinase 1 (Homo sapiens, UniProt P28482); assay: Inhibition of recombinant ERK2 (unknown origin)
Sequence of Mitogen-activated protein kinase 1 (P28482 whole entry): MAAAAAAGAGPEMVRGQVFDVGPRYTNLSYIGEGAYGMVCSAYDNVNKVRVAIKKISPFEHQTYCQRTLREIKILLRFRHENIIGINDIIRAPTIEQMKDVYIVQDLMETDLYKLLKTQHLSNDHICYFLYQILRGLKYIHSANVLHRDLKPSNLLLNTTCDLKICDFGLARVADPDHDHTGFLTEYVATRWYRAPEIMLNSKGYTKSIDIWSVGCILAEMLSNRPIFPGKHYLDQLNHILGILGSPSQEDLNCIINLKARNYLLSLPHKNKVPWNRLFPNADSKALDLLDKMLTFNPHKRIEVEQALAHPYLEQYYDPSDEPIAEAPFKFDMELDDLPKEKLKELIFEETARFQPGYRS

[34] = biological target: MAP kinase-activated protein kinase 2 (Homo sapiens, UniProt P49137); assay: Inhibition of recombinant MAPKAPK2 (unknown origin)
Sequence of MAP kinase-activated protein kinase 2 (P49137 whole entry): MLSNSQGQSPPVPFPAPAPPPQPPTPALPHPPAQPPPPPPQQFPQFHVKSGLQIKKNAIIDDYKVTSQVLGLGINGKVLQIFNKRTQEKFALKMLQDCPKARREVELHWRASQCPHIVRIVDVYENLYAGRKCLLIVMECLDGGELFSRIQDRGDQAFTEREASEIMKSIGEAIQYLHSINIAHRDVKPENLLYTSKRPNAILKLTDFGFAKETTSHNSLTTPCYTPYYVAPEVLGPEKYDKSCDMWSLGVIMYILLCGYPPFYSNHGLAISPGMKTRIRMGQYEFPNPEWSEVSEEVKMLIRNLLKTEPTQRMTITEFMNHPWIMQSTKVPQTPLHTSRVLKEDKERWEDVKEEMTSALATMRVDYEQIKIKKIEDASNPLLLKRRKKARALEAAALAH

[35] = test system: KG-1; assay: Antiproliferative activity against human KG-1 cells assessed as inhibition of cell growth incubated for 72 hrs by celltiter-glo assay; assay type: functional, cell-based; settings: KG-1, 72 h
[36] = test system: SNB-19; assay: Antiproliferative activity against human SNB-19 cells assessed as inhibition of cell growth incubated for 72 hrs by celltiter-glo assay; assay type: functional, cell-based; settings: SNB-19, 72 h
[37] = test system: HCT-116; assay: Cell cycle arrest in human HCT-116 cells assessed as accumulation of cells at G2/M phase at 0.2 to 1 micromol/L incubated for 48 hrs by FACS/PI staining based flow cytometric analysis; assay type: functional; settings: dose 0.2-1 µmol/L
[38] = biological target: Serine/threonine-protein kinase PLK2 (Homo sapiens, UniProt Q9NYY3); assay: Inhibition of recombinant PLK2 (unknown origin)
Sequence of Serine/threonine-protein kinase PLK2 (Q9NYY3 whole entry): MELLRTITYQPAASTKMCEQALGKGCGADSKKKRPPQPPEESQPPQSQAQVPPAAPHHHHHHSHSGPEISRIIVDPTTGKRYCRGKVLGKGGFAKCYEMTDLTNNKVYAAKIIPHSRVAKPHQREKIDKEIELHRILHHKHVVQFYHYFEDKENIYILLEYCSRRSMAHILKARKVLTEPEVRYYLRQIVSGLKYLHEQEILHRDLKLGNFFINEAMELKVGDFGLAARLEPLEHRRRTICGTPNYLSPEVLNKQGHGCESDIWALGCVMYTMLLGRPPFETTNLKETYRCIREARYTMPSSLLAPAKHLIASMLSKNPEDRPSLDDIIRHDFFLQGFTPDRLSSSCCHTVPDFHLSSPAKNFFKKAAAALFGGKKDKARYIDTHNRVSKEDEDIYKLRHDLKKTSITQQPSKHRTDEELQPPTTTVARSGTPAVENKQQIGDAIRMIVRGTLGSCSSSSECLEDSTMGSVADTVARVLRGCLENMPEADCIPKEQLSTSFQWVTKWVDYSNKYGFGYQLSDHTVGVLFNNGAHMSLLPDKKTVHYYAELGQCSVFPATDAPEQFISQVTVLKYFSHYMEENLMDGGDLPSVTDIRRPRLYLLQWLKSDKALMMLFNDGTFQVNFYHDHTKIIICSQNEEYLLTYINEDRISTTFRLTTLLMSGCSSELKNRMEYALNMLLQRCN

[39] = test system: SNB-75; assay: Antiproliferative activity against human SNB-75 cells assessed as inhibition of cell growth incubated for 72 hrs by celltiter-glo assay; assay type: functional, cell-based; settings: SNB-75, 72 h
[40] = test system: U2OS; assay: Antiproliferative activity against human U2OS cells assessed as inhibition of cell growth incubated for 72 hrs by celltiter-glo assay; assay type: functional, cell-based
[41] = test system: KM12; assay: Antiproliferative activity against human KM12 cells assessed as inhibition of cell growth incubated for 72 hrs by celltiter-glo assay; assay type: functional, cell-based; settings: KM12, 72 h
[42] = test system: HL-60; assay: Antiproliferative activity against human HL-60 cells assessed as inhibition of cell growth incubated for 72 hrs by celltiter-glo assay; assay type: functional, cell-based; settings: HL-60, 72 h

IC50 [2]: 0.232 µM
IC50 [3]: 3.92 µM
IC50 [4]: 5 µM
IC50 [5]: 2.59 µM
IC50 [6]: > 10 µM
clearance [7]: 0.6 L/h/kg
IC50 [8]: 3.61 µM
IC50 [11]: 6.46 µM
IC50 [12]: 0.899 µM
IC50 [13]: > 10 µM
IC50 [14]: > 10 µM
IC50 [16]: 0.551 µM
IC50 [17]: > 10 µM
IC50 [18]: 3.31 µM
IC50 [19]: 8.84 µM
IC50 [22]: 10 µM
IC50 [25]: 1.57 µM
IC50 [28]: 6.2 µM
IC50 [29]: 1.14 µM
IC50 [30]: > 10 µM
IC50 [31]: 0.015 µM
IC50 [33]: > 10 µM
IC50 [34]: > 10 µM
IC50 [38]: > 10 µM
IC50 [40]: 2.09 µM
IC50 [42]: 1.58 µM
Compound: CCc1cccc(CC)c1NC(=O)c1nn(C)c2c1CCc1cnc(Nc3ccc(C(=O)NC4CCN(C)CC4)cc3OC(F)(F)F)nc1-2
IC50 [1]: 1.37 µM
IC50 [9]: 8.56 µM
Activity [10]: Active
IC50 [15]: 2.48 µM
IC50 [20]: 0.807 µM
IC50 [21]: 1.87 µM
IC50 [23]: 1.32 µM
IC50 [24]: 6.98 µM
Activity [26]: Active
Activity [27]: Active
IC50 [32]: 2 µM
IC50 [35]: 2.96 µM
IC50 [36]: 6.93 µM
Activity [37]: Active
IC50 [39]: 2.2 µM
IC50 [41]: 0.586 µM
